Laboratory results taken from patent publication US12162858B2, “Quinoline derivatives as inhibitors of AXL/MER RTK and CSF1R” (QURIENT CO., LTD., priority 2018, dated 2024).
Like-named read-outs stand apart in the source and are kept apart here.

Experiments:
[1] = target: T1, Axl (Homo sapiens, UniProt P30530); assay: LanthaScreen Eu kinase binding assay for Axl
T1 sequence (P30530 26-894): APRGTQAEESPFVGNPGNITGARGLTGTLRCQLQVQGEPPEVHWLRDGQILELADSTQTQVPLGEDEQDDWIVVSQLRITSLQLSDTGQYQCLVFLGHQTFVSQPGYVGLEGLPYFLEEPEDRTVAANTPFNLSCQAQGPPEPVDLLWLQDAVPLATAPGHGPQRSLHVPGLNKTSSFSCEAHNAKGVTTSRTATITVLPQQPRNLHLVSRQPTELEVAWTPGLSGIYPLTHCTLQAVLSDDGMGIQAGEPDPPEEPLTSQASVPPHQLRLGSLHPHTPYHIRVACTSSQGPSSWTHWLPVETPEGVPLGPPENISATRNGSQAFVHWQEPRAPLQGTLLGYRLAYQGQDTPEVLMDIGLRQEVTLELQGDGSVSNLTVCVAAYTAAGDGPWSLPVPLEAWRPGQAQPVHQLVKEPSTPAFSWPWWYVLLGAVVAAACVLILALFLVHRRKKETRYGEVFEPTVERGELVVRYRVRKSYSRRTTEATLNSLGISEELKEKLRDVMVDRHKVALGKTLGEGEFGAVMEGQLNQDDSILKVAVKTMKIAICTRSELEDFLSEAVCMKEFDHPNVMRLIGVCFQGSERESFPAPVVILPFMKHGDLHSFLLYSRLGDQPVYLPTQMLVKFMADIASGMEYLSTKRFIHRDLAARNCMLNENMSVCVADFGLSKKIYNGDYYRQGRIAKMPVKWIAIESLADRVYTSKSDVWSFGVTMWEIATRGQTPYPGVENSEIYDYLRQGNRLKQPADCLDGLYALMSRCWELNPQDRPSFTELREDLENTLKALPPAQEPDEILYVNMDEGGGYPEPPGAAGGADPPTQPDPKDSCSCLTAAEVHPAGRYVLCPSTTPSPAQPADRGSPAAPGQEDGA
Protocol: LanthaScreen® Eu Kinase Binding assays were conducted at Life Technologies using the manufacturer's specifications for each kinase indicated.
Briefly, the principle behind this assay is based upon the binding and displacement of an Alexa Fluor 647-labeled tracer to the kinase of interest. Binding of the tracer to the kinase is detected using an EU-labeled anti-tag antibody. Simultaneous binding of both the tracer and antibody to the kinase gives rise to a FRET-signal. Binding of an inhibitor to the kinase competes for binding with the tracer, resulting in a loss of FRET-signal.
A given compound was diluted in DMSO to make a stock compound solution. The stock compound solution was serially diluted over eight steps in DMSO. Each diluted compound solution in DMSO was diluted in kinase buffer. Afterwards four kinds of working solution were prepared. First, Tracer-Working solution consists of Tracer 236 and Kinase Buffer. Second, Axl, Mer, Tyro3 or Met/anti-GST-AB-Working solution contained one of the kinases Axl, and Mer or anti-GST-AB (=anti glutathione-S-transferase antibody) in Kinase Buffer. Third, anti-GST-AB-Working solution was made with anti-GST-AB and Kinase Buffer. Last, in the DMSO-Working solution DMSO was added to Kinase Buffer to a final concentration to 3%. Each of the four kinds of working solutions were separately added to the assay plate and then incubated for 1 h at room temperature. After incubation, the assay plate was measured with respect to the FRET-Signal with the EnVision (Perkin Elmer) using the program LanthaHTRF-Assay. Data evaluation was done in the Quattro Workflow software. Kd (the equilibrium dissociation constant) values were calculated relative to vehicle (DMSO) control wells.

[2] = target: CSF1R (Homo sapiens, UniProt P07333); assay: KINOMEscan competition binding assay for CSF1R; parameters: DNA tag for qPCR (not a peptide); host or cells: E. coli/T7 phage or HEK-293
Protocol: KINOMEscan™ is based on a competition binding assay that quantitatively measures the ability of a compound to compete with an immobilized, active-site directed ligand. The assay is performed by combining three components: DNA-tagged kinase; immobilized ligand; and a test compound. The ability of the test compound to compete with the immobilized ligand is measured via quantitative PCR of the DNA tag.
E. coli were grown to log-phase and infected with T7 phage and incubated with shaking at 32° C. until lysis. The lysates were centrifuged and filtered to remove cell debris. The remaining kinases were produced in HEK-293 cells and subsequently tagged with DNA for qPCR detection. Streptavidin-coated magnetic beads were treated with biotinylated small molecule ligands for 30 minutes at room temperature to generate affinity resins for kinase assays. The liganded beads were blocked with excess biotin and washed with blocking buffer (SeaBlock (Pierce), 1% BSA, 0.05% Tween 20, 1 mM DTT) to remove unbound ligand and to reduce non-specific binding. Binding reactions were assembled by combining kinases, liganded affinity beads, and test compounds in 1× binding buffer (20% SeaBlock, 0.17×PBS, 0.05% Tween 20, 6 mM DTT). Test compounds were prepared as 111× stocks in 100% DMSO. Kds were determined using an 11-point 3-fold compound dilution series with three DMSO control points. All compounds for Kd measurements are distributed by acoustic transfer (non-contact dispensing) in 100% DMSO. The compounds were then diluted directly into the assays such that the final concentration of DMSO was 0.9%. In case of % inhibition, test compounds were prepared as 40× stocks in 100% DMSO and directly diluted into the assay. All reactions performed in polypropylene 384-well plate. Each was a final volume of 0.02 ml. The assay plates were incubated at room temperature with shaking for 1 hour and the affinity beads were washed with wash buffer (1×PBS, 0.05% Tween 20). The beads were then re-suspended in elution buffer (1×PBS, 0.05% Tween 20, 0.5 μM non-biotinylated affinity ligand) and incubated at room temperature with shaking for 30 minutes. The kinase concentration in the eluates was measured by qPCR.
The CSF1R kinase binding activity results are shown in tables 1 (Kd) and 2 (percent inhibition at a concentration of 0.1 uM of compound to be tested).
Binding constants (Kds) were calculated with a standard dose-response curve using the Hill equation: […]
The Hill Slope was set to −1.
Curves were fitted using a non-linear least square fit with the Levenberg-Marquardt algorithm.
Binding % inhibition were calculated with as below:
[formula] • negative control=DMSO (100% Ctrl) • positive control=control compound (0% Ctrl)

[3] = read-out: Axl kinase binding activity (Kd)
[4] = read-out: CSF1R kinase binding activity, Percent (%) inhibition
[5] = read-out: CSF1R kinase binding activity, Range

Chain of CSF1R (P07333 20-972): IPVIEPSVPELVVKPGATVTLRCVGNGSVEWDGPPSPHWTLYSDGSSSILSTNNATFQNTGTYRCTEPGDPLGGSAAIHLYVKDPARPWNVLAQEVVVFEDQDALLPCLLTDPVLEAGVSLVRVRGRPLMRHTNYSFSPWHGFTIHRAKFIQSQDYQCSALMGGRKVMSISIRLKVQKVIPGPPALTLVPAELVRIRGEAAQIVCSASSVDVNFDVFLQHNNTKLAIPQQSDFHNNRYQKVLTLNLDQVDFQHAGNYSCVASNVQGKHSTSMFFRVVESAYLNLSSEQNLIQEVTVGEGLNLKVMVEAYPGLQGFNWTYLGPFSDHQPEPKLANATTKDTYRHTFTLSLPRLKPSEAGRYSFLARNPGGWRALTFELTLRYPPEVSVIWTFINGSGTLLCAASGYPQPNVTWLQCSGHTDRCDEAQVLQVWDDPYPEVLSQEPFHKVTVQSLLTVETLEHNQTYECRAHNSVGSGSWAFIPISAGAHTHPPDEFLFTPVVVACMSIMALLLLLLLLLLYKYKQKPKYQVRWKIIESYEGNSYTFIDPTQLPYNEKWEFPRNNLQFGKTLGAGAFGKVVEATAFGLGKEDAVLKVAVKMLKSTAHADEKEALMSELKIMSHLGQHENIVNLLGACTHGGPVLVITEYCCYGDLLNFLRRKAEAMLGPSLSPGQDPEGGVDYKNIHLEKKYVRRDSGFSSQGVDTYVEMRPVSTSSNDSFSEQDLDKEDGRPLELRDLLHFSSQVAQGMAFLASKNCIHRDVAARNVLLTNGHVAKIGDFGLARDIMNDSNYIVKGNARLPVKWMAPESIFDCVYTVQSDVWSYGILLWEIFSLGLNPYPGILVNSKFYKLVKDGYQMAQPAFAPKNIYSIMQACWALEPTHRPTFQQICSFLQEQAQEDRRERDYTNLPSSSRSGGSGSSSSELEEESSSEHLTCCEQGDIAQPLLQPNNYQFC

Structure (SMILES): COc1cc2nccc(Oc3ccc(NC(=O)c4nn(C5CC5)cc4OCCF)nc3)c2cc1OC [Compound 110]
- Kd [1, 3]: < 100 nM
- inhibition at 0.1 µM [2, 4]: 98%
- inhibition at 0.1 µM [2, 5]: ≥ 80%

Structure (SMILES): COc1cc2nccc(Oc3ccc(NC(=O)c4nn(C5CC5)cc4OC(C)C)nn3)c2cc1OC [Compound 147]
- Kd [1, 3]: < 100 nM
- inhibition at 0.1 µM [2, 4]: 85%
- inhibition at 0.1 µM [2, 5]: ≥ 80%

Structure (SMILES): CNCCn1cc(OCC(F)(F)F)c(C(=O)Nc2ccc(Oc3ccnc4cc(OC)c(OC)cc34)c(C)c2)n1 [Compound 156]
- Kd [1, 3]: 100 to 500 nM
- inhibition at 0.1 µM [2, 4]: 49%
- inhibition at 0.1 µM [2, 5]: < 50%

Structure (SMILES): CCCn1cc(OCC2COC2)c(C(=O)Nc2ccc(Oc3ccnc4cc(OC)c(OC)cc34)cn2)n1 [Compound 106]
- Kd [1, 3]: < 100 nM
- inhibition at 0.1 µM [2, 4]: 95%
- inhibition at 0.1 µM [2, 5]: ≥ 80%

Structure (SMILES): CCCn1cc(OCC2CCOCC2)c(C(=O)Nc2ccc(Oc3ccnc4cc(OC)c(OC)cc34)cn2)n1 [Compound 164]
- Kd [1, 3]: < 100 nM
- inhibition at 0.1 µM [2, 4]: 73%
- inhibition at 0.1 µM [2, 5]: 50 to 80%

Structure (SMILES): CNCCn1cc(OCC(F)(F)F)c(C(=O)Nc2ccc(Oc3ccnc4cc(OC)c(OC)cc34)cc2F)n1 [Compound 154]
- Kd [1, 3]: < 100 nM
- inhibition at 0.1 µM [2, 4]: 47%
- inhibition at 0.1 µM [2, 5]: < 50%

Structure (SMILES): COc1cc2nccc(Oc3ccc(NC(=O)c4nn(C5CC5)cc4NCCC(F)(F)F)nc3)c2cc1OC [Compound 142]
- Kd [1, 3]: < 100 nM
- inhibition at 0.1 µM [2, 4]: 92%
- inhibition at 0.1 µM [2, 5]: ≥ 80%

Structure (SMILES): COc1cc2nccc(Oc3ccc(NC(=O)c4nn(CCOC5CC5)cc4OCC(F)(F)F)cc3)c2cc1OC [Compound 118]
- Kd [1, 3]: < 100 nM
- inhibition at 0.1 µM [2, 4]: 93%
- inhibition at 0.1 µM [2, 5]: ≥ 80%

Structure (SMILES): COc1cc2nccc(Oc3ccc(NC(=O)c4nn(CCOC5CC5)cc4OCC(F)(F)F)c(F)c3)c2cc1OC [Compound 115]
- Kd [1, 3]: < 100 nM
- inhibition at 0.1 µM [2, 4]: 94%
- inhibition at 0.1 µM [2, 5]: ≥ 80%

Structure (SMILES): COc1cc2nccc(Oc3ccc(NC(=O)c4nn(CCOC5CC5)cc4OCC(F)(F)F)cc3F)c2cc1OC [Compound 116]
- Kd [1, 3]: < 100 nM
- inhibition at 0.1 µM [2, 4]: 93%
- inhibition at 0.1 µM [2, 5]: ≥ 80%

Structure (SMILES): CCn1cc(OCC(F)(F)F)c(C(=O)Nc2ccc(Oc3ccnc4cc(OC)c(OC)cc34)cn2)n1 [Compound 4]
- Kd ([1]; comparison of compounds of present invention (**) vs compounds of WO2016/166250 (*), read-out: Binding activity Axl (Kd)): 1.1 nM
- Kd [1, 3]: < 100 nM
- inhibition at 0.1 µM [2, 4]: 98%
- inhibition at 0.1 µM [2, 5]: ≥ 80%
- Kd ([2]; read-out: CSF1R kinase binding activity (Kd)): < 100 nM

Structure (SMILES): COc1cc2nccc(Oc3ccc(NC(=O)c4nn(C5CCN(C)C5)cc4OCC(F)(F)F)cc3C)c2cc1OC (centres unmarked) [Compound 98]
- Kd [1, 3]: 100 to 500 nM
- inhibition at 0.1 µM [2, 4]: 60%
- inhibition at 0.1 µM [2, 5]: 50 to 80%

Structure (SMILES): COc1cc2nccc(Oc3ccc(NC(=O)c4nn(C5CCCC5)cc4OCC(F)(F)F)nn3)c2cc1OC [Compound 121]
- Kd [1, 3]: < 100 nM
- inhibition at 0.1 µM [2, 4]: 98%
- inhibition at 0.1 µM [2, 5]: ≥ 80%

Structure (SMILES): COc1cc2nccc(Oc3ccc(NC(=O)c4nn(C5CC5)cc4NCC(F)(F)F)nc3)c2cc1OC [Compound 145]
- Kd [1, 3]: < 100 nM
- inhibition at 0.1 µM [2, 4]: 94%
- inhibition at 0.1 µM [2, 5]: ≥ 80%

Structure (SMILES): CCCn1cc(OCC(F)(F)F)c(C(=O)Nc2ccc(Oc3ccnc4cc(OC)c(OC)cc34)c(C(F)(F)F)c2)n1 [Compound 114]
- Kd [1, 3]: < 100 nM
- inhibition at 0.1 µM [2, 4]: 27%
- inhibition at 0.1 µM [2, 5]: < 50%

Structure (SMILES): COc1cc2nccc(Oc3ccc(NC(=O)c4nn(CC(C)C)cc4OCC(F)(F)F)cn3)c2cc1OC [Compound 103]
- Kd [1, 3]: < 100 nM
- inhibition at 0.1 µM [2, 4]: 29%
- inhibition at 0.1 µM [2, 5]: < 50%

Structure (SMILES): COc1cc2nccc(Oc3ccc(NC(=O)c4nn(CCN)cc4OCC(F)(F)F)cn3)c2cc1OC [Compound 135]
- Kd [1, 3]: ≥ 500 nM
- inhibition at 0.1 µM [2, 4]: 4%
- inhibition at 0.1 µM [2, 5]: < 50%

Structure (SMILES): COc1cc2nccc(Oc3ccc(NC(=O)c4nn(CC5COC5)cc4OCC(F)(F)F)cc3F)c2cc1OC [Compound 97]
- Kd [1, 3]: < 100 nM
- inhibition at 0.1 µM [2, 4]: 56%
- inhibition at 0.1 µM [2, 5]: 50 to 80%

Structure (SMILES): COc1cc2nccc(Oc3ccc(NC(=O)c4nn(CC(C)O)cc4OCCF)nc3)c2cc1OC (centres unmarked) [Compound 152]
- Kd [1, 3]: < 100 nM
- inhibition at 0.1 µM [2, 4]: 96%
- inhibition at 0.1 µM [2, 5]: ≥ 80%

Structure (SMILES): COc1cc2nccc(Oc3ccc(NC(=O)c4nn(C5CCOC5)cc4OCC(F)(F)F)nn3)c2cc1OC (centres unmarked) [Compound 128]
- Kd [1, 3]: < 100 nM
- inhibition at 0.1 µM [2, 4]: 94%
- inhibition at 0.1 µM [2, 5]: ≥ 80%

Structure (SMILES): COc1cc2nccc(Oc3ccc(NC(=O)c4nn(C5CC5)cc4OCC(F)F)nn3)c2cc1OC [Compound 162]
- Kd [1, 3]: < 100 nM
- inhibition at 0.1 µM [2, 4]: 91%
- inhibition at 0.1 µM [2, 5]: ≥ 80%

Structure (SMILES): COc1cc2nccc(Oc3ccc(NC(=O)c4nn(C5CCN(C)C5)cc4OCC(F)(F)F)cn3)c2cc1OC (centres unmarked) [Compound 133]
- Kd [1, 3]: 100 to 500 nM
- inhibition at 0.1 µM [2, 4]: 9%
- inhibition at 0.1 µM [2, 5]: < 50%

Structure (SMILES): CNCCn1cc(OCC(F)(F)F)c(C(=O)Nc2ccc(Oc3ccnc4cc(OC)c(OC)cc34)c(F)c2)n1 [Compound 155]
- Kd [1, 3]: < 100 nM
- inhibition at 0.1 µM [2, 4]: 22%
- inhibition at 0.1 µM [2, 5]: < 50%
